Test results: ChEMBL document CHEMBL1201862, “PubChem BioAssay data set” (2004)
The source made the active and inactive calls.

Tests used:
NADPH oxidase 1 = NADPH oxidase 1 (Homo sapiens, UniProt Q9Y5S8); assay type: functional, cell-based;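 note: Cell-based assay with luminescence read-out, IC50 derived from inhibitor dose-response curves; intracellular ROS from endogenous NOX1 in intact HT29 colon cancer cells; potency of inhibitors that lower the ROS luminescence signal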
[1] = biological target: Peroxisome proliferator-activated receptor gamma/Nuclear receptor coactivator 2 (Homo sapiens, UniProt P37231); assay type: functional;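 note: agonist potency for raising coactivator recruitment to the receptor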
Peroxisome proliferator-activated receptor gamma/Nuclear receptor coactivator 2, sequence (P37231 whole entry): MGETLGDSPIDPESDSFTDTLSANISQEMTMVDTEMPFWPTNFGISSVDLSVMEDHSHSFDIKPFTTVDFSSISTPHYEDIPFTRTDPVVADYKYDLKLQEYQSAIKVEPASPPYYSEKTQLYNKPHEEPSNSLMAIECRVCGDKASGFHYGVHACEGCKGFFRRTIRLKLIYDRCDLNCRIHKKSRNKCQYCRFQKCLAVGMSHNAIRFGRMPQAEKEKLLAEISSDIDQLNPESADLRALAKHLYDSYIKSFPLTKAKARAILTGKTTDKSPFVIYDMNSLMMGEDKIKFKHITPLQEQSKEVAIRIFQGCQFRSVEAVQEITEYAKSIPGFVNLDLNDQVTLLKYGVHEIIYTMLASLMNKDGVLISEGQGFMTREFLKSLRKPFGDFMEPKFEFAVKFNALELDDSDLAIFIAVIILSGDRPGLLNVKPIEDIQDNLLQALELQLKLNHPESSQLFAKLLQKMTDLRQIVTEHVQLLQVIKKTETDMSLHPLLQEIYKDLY
Peroxisome proliferator-activated receptor gamma/Nuclear receptor coactivator 2, sequence (Q15596 whole entry, further chain): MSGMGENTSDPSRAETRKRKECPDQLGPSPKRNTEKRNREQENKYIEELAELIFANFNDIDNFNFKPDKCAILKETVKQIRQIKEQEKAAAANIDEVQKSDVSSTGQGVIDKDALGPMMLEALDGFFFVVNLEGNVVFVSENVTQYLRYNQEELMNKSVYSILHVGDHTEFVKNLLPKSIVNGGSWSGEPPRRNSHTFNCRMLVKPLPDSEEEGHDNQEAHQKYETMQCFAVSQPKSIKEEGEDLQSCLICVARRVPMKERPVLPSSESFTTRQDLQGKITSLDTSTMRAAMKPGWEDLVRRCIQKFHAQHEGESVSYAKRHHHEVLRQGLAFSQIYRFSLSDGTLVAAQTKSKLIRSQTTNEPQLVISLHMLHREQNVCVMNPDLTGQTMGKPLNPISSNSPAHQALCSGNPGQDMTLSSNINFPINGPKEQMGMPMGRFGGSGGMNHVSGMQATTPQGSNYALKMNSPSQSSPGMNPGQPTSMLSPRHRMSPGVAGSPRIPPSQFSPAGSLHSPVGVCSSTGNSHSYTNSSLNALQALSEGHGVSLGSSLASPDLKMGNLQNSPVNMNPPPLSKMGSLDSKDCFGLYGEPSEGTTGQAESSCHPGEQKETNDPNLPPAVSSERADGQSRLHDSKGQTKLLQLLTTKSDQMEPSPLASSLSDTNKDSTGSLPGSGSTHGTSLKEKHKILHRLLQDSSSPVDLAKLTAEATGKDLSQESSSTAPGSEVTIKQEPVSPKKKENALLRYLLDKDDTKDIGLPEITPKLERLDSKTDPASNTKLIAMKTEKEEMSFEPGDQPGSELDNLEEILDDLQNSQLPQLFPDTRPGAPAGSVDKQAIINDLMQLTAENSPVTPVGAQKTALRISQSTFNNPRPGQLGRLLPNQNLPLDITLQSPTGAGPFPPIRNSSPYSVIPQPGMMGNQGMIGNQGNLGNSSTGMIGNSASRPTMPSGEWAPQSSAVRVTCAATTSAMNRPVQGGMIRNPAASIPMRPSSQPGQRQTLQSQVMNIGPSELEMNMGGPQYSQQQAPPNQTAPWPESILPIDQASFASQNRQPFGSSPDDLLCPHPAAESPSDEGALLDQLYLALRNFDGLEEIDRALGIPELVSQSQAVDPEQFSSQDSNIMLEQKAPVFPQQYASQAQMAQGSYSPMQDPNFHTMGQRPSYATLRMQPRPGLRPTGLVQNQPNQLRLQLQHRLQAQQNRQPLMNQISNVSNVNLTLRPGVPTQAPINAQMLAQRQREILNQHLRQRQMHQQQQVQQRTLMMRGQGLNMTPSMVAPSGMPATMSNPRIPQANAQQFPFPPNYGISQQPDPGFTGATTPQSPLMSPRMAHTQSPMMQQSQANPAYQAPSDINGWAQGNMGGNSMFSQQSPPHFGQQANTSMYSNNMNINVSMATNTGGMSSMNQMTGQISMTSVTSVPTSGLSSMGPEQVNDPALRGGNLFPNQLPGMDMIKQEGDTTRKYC

[2] = biological target: Peroxisome proliferator-activated receptor gamma/Nuclear receptor coactivator 1 (Homo sapiens, UniProt P37231); assay type: functional;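 note: agonist potency as compounds enhance coactivator SRC-1 recruitment to PPARgamma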
Peroxisome proliferator-activated receptor gamma/Nuclear receptor coactivator 1, sequence (P37231 whole entry): as the sequence (P37231 whole entry) above
Peroxisome proliferator-activated receptor gamma/Nuclear receptor coactivator 1, sequence (Q15788 whole entry, further chain): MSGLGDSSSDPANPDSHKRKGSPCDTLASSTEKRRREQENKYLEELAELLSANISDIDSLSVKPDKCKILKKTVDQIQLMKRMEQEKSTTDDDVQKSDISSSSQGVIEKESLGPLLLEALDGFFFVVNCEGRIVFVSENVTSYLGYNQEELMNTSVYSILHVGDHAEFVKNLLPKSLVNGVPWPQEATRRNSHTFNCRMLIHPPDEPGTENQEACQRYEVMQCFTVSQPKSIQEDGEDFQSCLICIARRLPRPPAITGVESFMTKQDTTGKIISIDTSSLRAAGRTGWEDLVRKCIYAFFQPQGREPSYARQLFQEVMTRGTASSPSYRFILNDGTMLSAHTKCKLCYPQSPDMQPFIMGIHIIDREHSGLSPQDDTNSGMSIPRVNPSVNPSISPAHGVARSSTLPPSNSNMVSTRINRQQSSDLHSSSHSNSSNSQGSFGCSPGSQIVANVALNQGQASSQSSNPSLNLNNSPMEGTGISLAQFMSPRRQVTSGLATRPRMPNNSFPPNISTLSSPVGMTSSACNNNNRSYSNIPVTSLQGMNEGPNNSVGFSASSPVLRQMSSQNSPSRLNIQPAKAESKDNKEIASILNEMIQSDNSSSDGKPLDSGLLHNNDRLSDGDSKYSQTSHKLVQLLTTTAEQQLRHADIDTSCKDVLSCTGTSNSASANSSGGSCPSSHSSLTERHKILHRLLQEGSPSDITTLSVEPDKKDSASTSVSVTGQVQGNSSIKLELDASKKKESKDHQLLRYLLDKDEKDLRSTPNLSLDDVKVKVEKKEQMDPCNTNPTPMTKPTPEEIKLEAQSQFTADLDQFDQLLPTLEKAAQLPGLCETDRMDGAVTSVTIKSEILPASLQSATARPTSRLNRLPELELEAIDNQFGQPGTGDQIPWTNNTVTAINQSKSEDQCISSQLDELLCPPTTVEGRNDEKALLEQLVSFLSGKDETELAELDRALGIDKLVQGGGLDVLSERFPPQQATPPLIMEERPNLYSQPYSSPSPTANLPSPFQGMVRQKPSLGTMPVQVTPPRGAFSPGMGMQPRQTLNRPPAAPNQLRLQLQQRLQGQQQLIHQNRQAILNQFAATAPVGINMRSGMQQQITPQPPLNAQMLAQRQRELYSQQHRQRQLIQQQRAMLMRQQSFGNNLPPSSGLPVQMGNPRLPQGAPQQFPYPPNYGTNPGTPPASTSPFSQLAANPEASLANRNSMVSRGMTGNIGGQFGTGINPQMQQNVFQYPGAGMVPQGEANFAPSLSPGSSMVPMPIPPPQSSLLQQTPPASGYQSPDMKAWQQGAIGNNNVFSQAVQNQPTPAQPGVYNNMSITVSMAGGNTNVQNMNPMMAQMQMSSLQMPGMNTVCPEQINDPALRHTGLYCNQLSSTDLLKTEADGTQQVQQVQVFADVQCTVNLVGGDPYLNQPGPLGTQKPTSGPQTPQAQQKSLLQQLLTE

[3] = biological target: Peroxisome proliferator-activated receptor gamma/Nuclear receptor coactivator 3 (Homo sapiens, UniProt P37231); assay type: functional;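 note: agonist potency for raising coactivator recruitment to the receptor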
[4] = biological target: Mothers against decapentaplegic homolog 3 (Homo sapiens, UniProt P84022); assay: inhibitors of SMAD-driven TGF-beta signaling – dose response (AID 715); assay type: functional
Mothers against decapentaplegic homolog 3, sequence (P84022 whole entry): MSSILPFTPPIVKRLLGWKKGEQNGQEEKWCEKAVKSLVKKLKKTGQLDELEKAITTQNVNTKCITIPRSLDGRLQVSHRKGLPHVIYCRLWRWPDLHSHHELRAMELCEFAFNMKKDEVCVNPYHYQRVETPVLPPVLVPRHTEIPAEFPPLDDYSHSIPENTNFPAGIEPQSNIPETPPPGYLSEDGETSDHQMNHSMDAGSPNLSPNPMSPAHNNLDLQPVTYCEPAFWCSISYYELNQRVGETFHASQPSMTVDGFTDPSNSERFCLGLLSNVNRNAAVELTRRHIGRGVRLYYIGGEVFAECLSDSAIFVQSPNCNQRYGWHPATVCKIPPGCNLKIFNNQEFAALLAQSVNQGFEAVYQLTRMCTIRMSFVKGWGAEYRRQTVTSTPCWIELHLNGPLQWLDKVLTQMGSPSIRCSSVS

NS3 = NS3 (Hepatitis C virus, UniProt A3EZJ3); assay: PubChem AID 2173; parameters: species or system Hepacivirus hominis
NS3, sequence (A3EZJ3 whole entry): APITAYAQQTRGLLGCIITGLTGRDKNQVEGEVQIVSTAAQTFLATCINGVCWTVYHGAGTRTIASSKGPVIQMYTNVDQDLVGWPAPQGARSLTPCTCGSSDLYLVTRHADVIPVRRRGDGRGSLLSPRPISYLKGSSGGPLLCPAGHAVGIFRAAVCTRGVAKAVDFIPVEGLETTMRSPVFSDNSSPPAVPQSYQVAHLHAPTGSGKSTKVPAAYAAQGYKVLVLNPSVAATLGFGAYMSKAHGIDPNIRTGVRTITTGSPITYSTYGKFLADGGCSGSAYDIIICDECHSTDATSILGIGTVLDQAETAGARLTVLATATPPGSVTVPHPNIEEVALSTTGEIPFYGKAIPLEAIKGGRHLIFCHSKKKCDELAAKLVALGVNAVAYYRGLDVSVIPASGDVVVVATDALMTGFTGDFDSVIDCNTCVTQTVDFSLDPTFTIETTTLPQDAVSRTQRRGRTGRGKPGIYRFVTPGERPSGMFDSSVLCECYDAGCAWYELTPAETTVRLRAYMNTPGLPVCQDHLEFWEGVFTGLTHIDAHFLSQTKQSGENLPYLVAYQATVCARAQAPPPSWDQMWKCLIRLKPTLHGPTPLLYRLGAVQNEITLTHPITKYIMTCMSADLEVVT

HeLa = assay: Cytotoxicity counterscreen assay for transcriptional activators of heat shock protein 70 (Hsp70). [Related pubchem assays: 1203, 1252 ]; assay type: functional; settings: Homo sapiens;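 note: cells exposed to compound for 16 hours before readout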
[5] = biological target: T1, Microphthalmia-associated transcription factor (Homo sapiens, UniProt O75030); assay: reducers of TRPM1 reporter luminescence, concentration series – cell-based, SK-MEL-5, cherry-picked, set 3, MITF inhibitor project, dose response (AID 493073); assay type: functional;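 note: SK-MEL-5 melanoma cells with luciferase driven by the MITF target TRPM1 promoter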
T1 sequence (O75030 whole entry): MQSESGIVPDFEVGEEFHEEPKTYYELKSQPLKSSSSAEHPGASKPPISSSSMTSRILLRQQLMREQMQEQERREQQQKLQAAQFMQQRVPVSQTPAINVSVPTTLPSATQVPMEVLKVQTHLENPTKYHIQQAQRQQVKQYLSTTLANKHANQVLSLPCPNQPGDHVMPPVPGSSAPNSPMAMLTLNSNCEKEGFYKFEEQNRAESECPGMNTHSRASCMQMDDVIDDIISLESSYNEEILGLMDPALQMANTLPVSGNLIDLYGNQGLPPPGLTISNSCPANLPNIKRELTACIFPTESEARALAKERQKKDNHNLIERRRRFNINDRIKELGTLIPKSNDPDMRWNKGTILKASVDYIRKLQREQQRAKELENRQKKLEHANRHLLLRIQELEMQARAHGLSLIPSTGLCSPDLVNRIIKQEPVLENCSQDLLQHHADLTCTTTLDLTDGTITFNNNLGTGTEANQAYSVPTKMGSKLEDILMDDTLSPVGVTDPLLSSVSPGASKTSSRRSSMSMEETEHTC

[6] = reduction of Shn3 3'UTR-driven luciferase in osteoblasts – cell-based, Clone20 osteoblasts, firefly luciferase, cherry-picked, dose response (AID 624132); assay type: functional;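 note: firefly luciferase luminescence from reporter carrying the Shn3 3'UTR in osteoblasts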
[7] = loss of viability in HepG2 cells – cell-based, CellTiter-Glo, cherry-picked, cytotoxicity control for Shn3 inhibitor project, dose response (AID 624134); assay type: functional
[8] = non-specific 3'UTR reporter inhibition in Clone20-Shn3RL – cell-based, Renilla luciferase, cherry-picked, counter-screen for Shn3 inhibitor project, dose response (AID 624133); assay type: functional
[9] = viability loss in A549 lung cancer cells – cell-based, cherry-picks, […], cytotoxicity control, dose response (AID 1053119); assay type: functional
Streptokinase A = biological target: T2, Streptokinase A (Streptococcus pyogenes serotype M1, UniProt P10520); assay: Absorbance Microorganism-Based Dose Response Follow up to Identify Inhibitors of Streptokinase Expression. [Related pubchem assays: 1677 (Project Summary), 1915, 1914, 1902 (Retest at Dose), 1900 (Counter Screen), 1662 (Primary HTS)]; assay type: functional, Streptococcus pyogenes M1 GAS
T2 sequence (P10520 whole entry): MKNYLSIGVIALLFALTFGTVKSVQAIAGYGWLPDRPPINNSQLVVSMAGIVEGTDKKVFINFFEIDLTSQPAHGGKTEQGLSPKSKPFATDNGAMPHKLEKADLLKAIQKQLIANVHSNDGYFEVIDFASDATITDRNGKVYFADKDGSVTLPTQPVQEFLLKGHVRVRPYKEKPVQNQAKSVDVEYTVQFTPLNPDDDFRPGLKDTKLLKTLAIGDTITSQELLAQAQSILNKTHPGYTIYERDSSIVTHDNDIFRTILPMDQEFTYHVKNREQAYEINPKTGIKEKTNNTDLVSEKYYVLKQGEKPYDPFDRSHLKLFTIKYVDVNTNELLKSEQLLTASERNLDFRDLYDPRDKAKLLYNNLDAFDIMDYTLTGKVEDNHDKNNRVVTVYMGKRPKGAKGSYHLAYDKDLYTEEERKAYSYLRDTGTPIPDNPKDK

Streptococcus = assay: GAS bacterial viability reduction – luminescence, BacTiter-Glo, strain UMAA2166, counter-screen for streptokinase expression inhibitor project, dose response (AID 2477); assay type: functional, organism-based
[10] = biological target: Epstein-Barr nuclear antigen 1 (Epstein-Barr virus (strain B95-8) (HHV-4) (Human herpesvirus 4), UniProt P03211); assay: inhibition of EBV nuclear antigen 1 DNA binding – biochemical, fluorescence polarization, 1536-well, dose response (AID 2381); parameters: species or system human gammaherpesvirus 4;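 note: fluorescence polarization of a Cy5 DNA probe bound by EBNA-1 protein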
[11] = biological target: Lytic switch protein BZLF1 (Epstein-Barr virus (strain B95-8) (HHV-4) (Human herpesvirus 4), UniProt P03206); assay: inhibition of BZLF1 ZTA DNA binding – biochemical, fluorescence polarization, Epstein-Barr virus, 1536-well, counter-screen for EBNA-1 inhibitor project, dose response (AID 2377); parameters: species or system human gammaherpesvirus 4;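 note: fluorescence polarization of Cy5-labelled ZRE DNA probe bound by purified Zta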

COc1ccc(-c2nc(-c3ccccc3)c(-c3ccccc3)[nH]2)cc1O
IC50 (NADPH oxidase 1): > 17 µM (not active)

CCCCOC(=O)CSc1nc(N)c(C#N)c(-c2ccc(OCC)cc2)c1C#N
EC50 [1]: 9.42 µM (active) | EC50 [2]: 11.2 µM (not active) | EC50 [3]: > 79.4 µM (not active) | IC50 [4]: 11 µM (active)

Cc1cc(O)c(C(=O)/C=C/c2c(F)c(F)c(F)c(F)c2F)c(=O)o1
IC50 (NS3): 8.85 µM (active)

CS(=O)(=O)N1CCN(c2ccc(NC(=O)c3ccc([N+](=O)[O-])o3)cc2)CC1
CC50 (HeLa): 4.95 µM (active) | AC50 [5]: 4.92 µM (active) | AC50 [6]: 5.65 µM (active) | AC50 [7]: 64.6 µM (active) | AC50 [8]: 7.78 µM (active) | AC50 [9]: 49.3 µM (active)

COc1ccc(Sc2ccc(NC(=O)c3cccc(Cl)c3)cc2C#N)cc1
EC50 (Streptokinase A): 8.99 µM (active) | EC50 (Streptococcus): > 500 µM (not active)

COc1cc(NC(=O)c2ccc(Br)cc2)c(OC)cc1NC(=O)c1ccccc1
IC50 [10]: 15.4 µM (not active) | IC50 [11]: > 111 µM (not active)
